Test results as given in ChEMBL document CHEMBL5257129, “Design, synthesis, and anticancer evaluation of arylurea derivatives as potent and selective type II irreversible covalent FGFR4 inhibitors” (Bioorg Med Chem, 2023).

Legend:
[1] = tested on: Huh-7; assay: Antiproliferative activity against human Huh-7 cells assessed as inhibition of cell growth at 10 uM measured after 72 hrs by CCK8 assay; type: functional
[2] = tested on: Hep 3B2; assay: Antiproliferative activity against human Hep3B cells assessed as inhibition of cell growth at 10 uM measured after 72 hrs by CCK8 assay; type: functional
[3] = tested on: Hep 3B2; assay: Antiproliferative activity against human Hep3B cells assessed as inhibition of cell growth measured after 72 hrs by CCK8 assay; type: functional, cell-based
[4] = Cmax in Sprague-Dawley rat at 20 mg/kg, po measured upto 24 hrs by LC/MS/MS analysis; type: ADME, organism-based; parameters: dose 20 mg/kg, time < 24 hrs, route po; conditions: in vivo
[5] = Half life in Sprague-Dawley rat at 5 mg/kg, iv measured upto 24 hrs by LC/MS/MS analysis; type: ADME, organism-based; conditions: in vivo
[6] = Mean residence time (0 to t) in Sprague-Dawley rat at 5 mg/kg, iv measured upto 24 hrs by LC/MS/MS analysis; type: ADME, organism-based; conditions: in vivo
[7] = Half life in Sprague-Dawley rat at 20 mg/kg, po measured upto 24 hrs by LC/MS/MS analysis; type: ADME, organism-based; conditions: in vivo
[8] = Tmax in Sprague-Dawley rat at 20 mg/kg, po measured upto 24 hrs by LC/MS/MS analysis; type: ADME, organism-based; conditions: in vivo
[9] = Mean residence time (0 to t) in Sprague-Dawley rat at 20 mg/kg, po measured upto 24 hrs by LC/MS/MS analysis; type: ADME, organism-based; conditions: in vivo
[10] = AUC(0 to infinity) in Sprague-Dawley rat at 20 mg/kg, po measured upto 24 hrs by LC/MS/MS analysis; type: ADME, organism-based; parameters: dose 20 mg/kg, time < 24 hrs, route po; conditions: in vivo
[11] = Initial plasma concentration in Sprague-Dawley rat at 5 mg/kg, iv measured upto 24 hrs by LC/MS/MS analysis; type: ADME, organism-based
[12] = AUC(0 to t) in Sprague-Dawley rat at 5 mg/kg, iv measured upto 24 hrs by LC/MS/MS analysis; type: ADME, organism-based; parameters: time < 24 hrs, dose 5 mg/kg, route iv; conditions: in vivo
[13] = Tmax in Sprague-Dawley rat at 5 mg/kg, iv measured upto 24 hrs by LC/MS/MS analysis; type: ADME, organism-based; conditions: in vivo
[14] = Apparent volume of distribution in Sprague-Dawley rat at 5 mg/kg, iv measured upto 24 hrs by LC/MS/MS analysis; type: ADME, organism-based; conditions: in vivo, read-out: Vz
[15] = Cmax in Sprague-Dawley rat at 5 mg/kg, iv measured upto 24 hrs by LC/MS/MS analysis; type: ADME, organism-based; parameters: time < 24 hrs, dose 5 mg/kg, route iv; conditions: in vivo
[16] = AUC(0 to t) in Sprague-Dawley rat at 20 mg/kg, po measured upto 24 hrs by LC/MS/MS analysis; type: ADME, organism-based; parameters: dose 20 mg/kg, time < 24 hrs, route po; conditions: in vivo
[17] = AUC(0 to infinity) in Sprague-Dawley rat at 5 mg/kg, iv measured upto 24 hrs by LC/MS/MS analysis; type: ADME, organism-based; parameters: dose 5 mg/kg, time < 24 hrs, route iv; conditions: in vivo
[18] = Clearance in Sprague-Dawley rat at 5 mg/kg, iv measured upto 24 hrs by LC/MS/MS analysis; type: ADME, organism-based; conditions: in vivo
[19] = tested on: Huh-7; assay: Antiproliferative activity against human Huh-7 cells assessed as inhibition of cell growth measured after 72 hrs by CCK8 assay; type: functional, cell-based; conditions: Huh-7, 72 h

| IC50 [19] [µM] | Compound | inhibition at 10 µM [1] [%] | inhibition at 10 µM [2] [%] | IC50 [3] [µM] | other results |
| --- | --- | --- | --- | --- | --- |
|  | CC#CC(=O)Nc1ccc(Oc2ccc(NC(=O)Nc3ccc(CN4CCN(C)CC4)c(C(F)(F)F)c3)c(C)c2)cn1 | 93.2 | 92.3 |  |  |
|  | C=CC(=O)Nc1ccc(-c2ccc(NC(=O)Nc3ccc(CN4CCN(C)CC4)c(C(F)(F)F)c3)cc2C)cn1 | 96.9 | 95.3 |  |  |
|  | C=CC(=O)Nc1ccc(-c2ccc(NC(=O)Nc3ccc(CN4CCN(CC)CC4)c(C(F)(F)F)c3)c(C)c2)cn1 | 80.3 | 85.4 |  |  |
| 0.25 | C=CC(=O)Nc1ccc(Oc2ccc(NC(=O)Nc3ccc(CN4CCN(C)CC4)c(C(F)(F)F)c3)cc2)cn1 | 97.7 | 91 | 0.22 | Cmax [4]: 0.0237 µg/mL; half-life [5]: 4.75 h; MRT last at 24 h [6]: 1.25 h; half-life [7]: 3.12 h; Tmax [8]: 2.67 h; MRT last at 24 h [9]: 3.99 h; AUC(0-inf) [10]: 0.149 µg·h/mL; C0 at 24 h [11]: 4.93 µg/mL; AUC(0-t) at 24 h [12]: 4.25 µg·h/mL; Tmax [13]: 4.98 min; Vd [14]: 8.1 L/kg; Cmax [15]: 4.19 µg/mL; AUC(0-t) at 24 h [16]: 0.14 µg·h/mL; AUC(0-inf) [17]: 4.26 µg·h/mL; clearance [18]: 1.18 L/h/kg |
| 1.02 | C/C=C/C(=O)Nc1ccc(Oc2ccc(NC(=O)Nc3ccc(CN4CCN(C)CC4)c(C(F)(F)F)c3)c(C)c2)cn1 | 86.7 | 87 | 1.12 |  |
| 3.38 | C=C(F)C(=O)Nc1ccc(-c2ccc(NC(=O)Nc3ccc(CN4CCN(C)CC4)c(C(F)(F)F)c3)c(C)c2)cn1 | 93 | 91.2 | 3.24 |  |
| 3.35 | C=CC(=O)Nc1ccc(-c2ccc(NC(=O)Nc3ccc(CN4CCN(C)CC4)c(C(F)(F)F)c3)c(C)c2)cn1 | 94.8 | 94.6 | 3.18 |  |
| 21.5 | Cc1cc(-c2ccc(NC(=O)CCl)nc2)ccc1NC(=O)Nc1ccc(CN2CCN(C)CC2)c(C(F)(F)F)c1 | 80.9 | 87.6 | 22.1 |  |
|  | C=CC(=O)Nc1ccc(-c2ccc(NC(=O)Nc3ccc(CN4CCN(C)CC4)c(C(F)(F)F)c3)cc2F)cn1 | 96.7 | 95.7 |  |  |
|  | C=CC(=O)Nc1ccc(-c2ccc(NC(=O)Nc3ccc(CN4CCN(C)CC4)c(C(F)(F)F)c3)cc2)cn1 | 94.8 | 95.8 |  |  |
|  | C=CC(=O)Nc1ccc(Oc2ccc(NC(=O)Nc3ccc(CN4CCN(C)CC4)c(C(F)(F)F)c3)c(C)c2)cn1 | 87.2 | 84.7 |  |  |
|  | C=CC(=O)Nc1ccc(-c2ccc(NC(=O)Nc3ccc(CN4CCN(C)CC4)c(C(F)(F)F)c3)nc2)cn1 | 59 | 67 |  |  |
| 1.62 | C=CC(=O)Nc1ccc(-c2ccc(NC(=O)Nc3ccc(CN4CCN(C)CC4)c(C(F)(F)F)c3)c(Cl)c2)cn1 | 91.4 | 99.1 | 1.27 |  |
|  | C=CC(=O)Nc1ccc(-c2cnc(NC(=O)Nc3ccc(CN4CCN(C)CC4)c(C(F)(F)F)c3)cn2)cn1 | 84.5 | 86.1 |  |  |
| 0.99 | Cc1ccc(C(=O)Nc2ccc(CN3CCN(C)CC3)c(C(F)(F)F)c2)cc1C#Cc1cnc2cccnn12 [PONATINIB] | 90.5 | 95.5 | 0.72 |  |
